Assay results from PMC9933715 (Antimicrobial Agents and Chemotherapy, 2023).
Where two headings read alike, the source gives them in different places.

Columns and labels:
murine cancer model = conditions: cited from earlier work
[1] = test system: ZIKV-R2A (strain FSS13025); test: microbe, parasite or virus in culture; assay type: cell-based; conditions: Zika virus, Huh7.5, 48 h; for activity at 50 µM: read-out: ZIKV-R2A replication (fold DMSO) Mean
Huh7.5 cells = test: Cell viability, CellTiter-Glo luminescent assay; conditions: for Cell viability (fold DMSO) Mean: deconvolution screen, singletons, 50 µM, uninfected Huh7.5
[2] = test system: DENV-R2A (Rluc-expressing DENV, serotype 2 strain 16681); test: microbe, parasite or virus in culture; assay type: cell-based, Dengue virus
DENV-R2A = assay type: cell-based, Dengue virus; conditions: 50 μM
SARS-CoV-2 = assay type: cell-based
HCV, strain JFH-1 = assay type: cell-based, hepatitis C virus; conditions: 50 μM, JFH-1-Luc, Huh7.5, 2 days
MHV-A59 = test: Infectious viral titer by plaque assay, MHV-A59 in DBT cells; assay type: cell-based, mouse hepatitis virus; conditions: 50 μM, MOI 0.0001, 1 day postinfection
ZIKV H/PF/2013 = test: Infectious viral titer by plaque assay, ZIKV in Huh7.5 cells; assay type: cell-based, Zika virus; conditions: 50 μM, MOI 0.1, Huh7.5, 2 days postinfection
[3] = test system: DENV vesicle packets (VP); test: Replication-independent vesicle packet induction (pIRO-D) in Huh7/Lunet-T7 cells, TEM, western blot, immunofluorescence; conditions: 50 μM for 12 h, pIRO-D-transfected Huh7/Lunet-T7
DENV2 16681s [4] = test: Infectious viral titer by plaque assay, wild-type DENV2 in Huh7.5 cells; assay type: cell-based, Dengue virus; conditions: 50 μM, MOI 0.1, Huh7.5, 2 days postinfection
DENV2 16681s [5] = test: Intracellular DENV vRNA (RT-qPCR) and NS4B (western blot) in infected Huh7.5 cells; assay type: cell-based, Dengue virus; conditions: 50 μM, MOI 0.1, Huh7.5, 2 days postinfection
WNV NY99 = test: Extracellular infectious titer by plaque assay, WNV in Huh7.5 cells; assay type: cell-based, West Nile virus; conditions: 50 μM, MOI 0.1, Huh7.5, 2 days postinfection
[6] = biological target: ZIKV NS3/NS4B interaction (Zika virus, UniProt A0A024B7W1); test: Coimmunoprecipitation assay of NS3/NS4B interaction; conditions: unpublished data
[7] = Dengue virus, Huh7.5, 48 h, read-out: DENV-R2A replication (fold DMSO) Mean, deconvolution screen, singletons, 50 µM, Huh7.5, 2 days postinfection

ZIKV NS3/NS4B interaction, sequence (A0A024B7W1 1503-2119): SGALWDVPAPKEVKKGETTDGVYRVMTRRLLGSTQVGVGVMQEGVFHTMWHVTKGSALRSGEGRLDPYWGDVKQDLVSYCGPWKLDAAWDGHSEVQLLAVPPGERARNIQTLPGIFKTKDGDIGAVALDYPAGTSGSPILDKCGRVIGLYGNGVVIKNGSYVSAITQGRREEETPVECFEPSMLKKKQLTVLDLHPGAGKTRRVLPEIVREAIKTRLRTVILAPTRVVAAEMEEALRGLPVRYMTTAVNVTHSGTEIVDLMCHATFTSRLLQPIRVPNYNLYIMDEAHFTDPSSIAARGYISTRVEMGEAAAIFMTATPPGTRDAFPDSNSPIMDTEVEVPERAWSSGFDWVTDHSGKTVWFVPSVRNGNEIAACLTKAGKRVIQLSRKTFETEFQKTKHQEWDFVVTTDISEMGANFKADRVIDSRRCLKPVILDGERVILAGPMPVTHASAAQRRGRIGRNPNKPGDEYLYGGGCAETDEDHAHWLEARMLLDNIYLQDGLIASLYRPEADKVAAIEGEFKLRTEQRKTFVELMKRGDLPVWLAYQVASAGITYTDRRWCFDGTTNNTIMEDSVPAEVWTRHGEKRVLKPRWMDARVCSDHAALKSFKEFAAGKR
ZIKV NS3/NS4B interaction, sequence (A0A024B7W1 2270-2520): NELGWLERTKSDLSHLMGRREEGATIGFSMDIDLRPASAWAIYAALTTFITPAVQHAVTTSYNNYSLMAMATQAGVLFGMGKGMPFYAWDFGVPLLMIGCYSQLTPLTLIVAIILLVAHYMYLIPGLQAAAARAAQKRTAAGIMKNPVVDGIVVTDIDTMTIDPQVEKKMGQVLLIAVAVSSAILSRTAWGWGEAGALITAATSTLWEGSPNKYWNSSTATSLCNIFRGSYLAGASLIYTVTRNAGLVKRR

Row | SMILES | activity at 50 µM [1] [%] | Cell viability (fold DMSO) Mean (Huh7.5 cells) [fold DMSO] | activity at 50 µM [2, 7] [%] | further results
1 | NC(=O)c1ccccc1NC(=O)c1ccc(-c2ccccc2)cc1 [N-(2-[aminocarbonyl]phenyl) (1,1′-biphenyl)-4-carboxamide] | – | – | – | efficacy in in vivo murine cancer model (murine cancer model): effective; toxicity in in vivo murine cancer model (murine cancer model): without observable toxicity
2 | CC(N)c1cccnc1 (stereo not drawn) [PS-3055, CC(N)c1cccnc1] | 111 | 0.98 | 100 | –
3 | Nc1ccccc1N1CCCCC1 [PS-4134, Nc1ccccc1N2CCCCC2] | 107 | 1.12 | 111 | –
4 | N#CCC(=O)Nc1ccccc1 [Compound 9B-046, O=C(CC#N)Nc1ccccc1] | 104 | 1.17 | 96 | –
5 | N#Cc1cccc(O)c1 [PS-5804, Oc1cccc(c1)C#N] | 115 | 1.16 | 102 | –
6 | COc1ccccc1N1CCNC(C)C1 (stereo not drawn) [SS-2433, COc1ccccc1N2CCNC(C)C2] | 94 | 1.09 | 82 | –
7 | Clc1ccc2nncn2c1 [GC-0731, Clc1ccc2nncn2c1] | 102 | 1.03 | 94 | –
8 | O=C(Nc1ccccc1)c1cccnc1 [NPP3C, N-phenylpyridine-3-carboxamide] | 27 | – | 2.38 | inhibitory activity when added after infection (DENV-R2A; added 4 h after infection): retain their full inhibitory activity; inhibitory activity when added after infection (DENV-R2A; added up to 8 h after infection, read 2 days postinfection): retained a strong inhibitory activity; EC50 ([1]; read-out: EC50 ZIKV-R2A FSS13025): 15.3 µM; anti-SARS-CoV-2 activity (reduction) (SARS-CoV-2): less than 10 fold; cell viability / cytotoxicity at the used concentration (Huh7.5 cells; 50 μM, Huh7.5): unaffected; impact on HCV replication (HCV, strain JFH-1): did inhibit; impact on MHV replication (MHV-A59): did not impede; reduction in ZIKV viral titers (ZIKV H/PF/2013): ~15 fold; levels of viral protein NS3 (western blot) [3]: remained unchanged; abundance of released virions (plaque assay) (DENV2 16681s [4]): reduced; decrease of viral replication (DENV-R2A) ([2]; 50 μM, Huh7.5, 2 days postinfection, vs DMSO): 55 fold; activity at 50 µM ([2]; Dengue virus, Huh7.5, 48 h, read-out: DENV-R2A replication (Fold DMSO), Table S3, NPP3C analogues, 50 µM, Huh7.5, 2 days postinfection): 1.31%; activity at 50 µM ([2]; Dengue virus, Huh7.5, 48 h, read-out: DENV-R2A replication (fold DMSO), Table 1, NPP3C analogues, 50 μM, Huh7.5, 2 days postinfection): 1%; EC50 ([2]; Dengue virus, Huh7.5, 48 h, read-out: EC50 DENV-R2A): 7.1 µM; intracellular levels of DENV vRNA and NS4B (DENV2 16681s [5]): decrease; decrease of WNV extracellular infectious titers (WNV NY99): 22 fold; formation and stability of ZIKV NS3/NS4B interaction [6]: do not inhibit
9 | Nc1cccnc1Cl [PS-5762, Nc1cccnc1Cl] | 109 | 1.10 | 106 | –
10 | Clc1cccn2nnnc12 [PS-5645, Clc1cccn2nnnc12] | 101 | 0.92 | 101 | –
11 | Nc1cnc(Cl)cn1 [PS-5654, Nc1cnc(Cl)cn1] | 117 | 1.12 | 97 | –
12 | O=C(O)C(O)c1cc(F)cc(F)c1 (stereo not drawn) [PS-6482, OC(C(=O)O)c1cc(F)cc(F)c1] | 110 | 1.08 | 101 | –
13 | Nc1cccc(Cl)c1Cl [PS-4077, Nc1cccc(Cl)c1Cl] | 120 | 0.97 | 96 | –
14 | N#CCOc1cccc2ccccc12 [MS-7107, N#CCOc1cccc2ccccc12] | 84 | 1.01 | 65 | –
15 | Cc1cc(C)n2ccnc2c1 [Compound 9X-0854, Cc1cc(C)n2ccnc2c1] | 98 | 1.21 | 94 | –
16 | Nc1cnccc1Cl [PS-6061, Nc1cnccc1Cl] | 102 | 1.04 | 102 | –
17 | COc1ncc(Cl)cc1C#N [PS-5618, COc1ncc(Cl)cc1C#N] | 97 | 1.05 | 108 | –
18 | c1ccn(-c2cnccn2)c1 [Compound 6N-039, c1ccn(c1)c2cnccn2] | 99 | 0.93 | 95 | –
19 | Cc1cc(O)nc2ccc(O)cc12 [PS-4921, Cc1cc(O)nc2ccc(O)cc12] | 83 | 1.00 | 92 | –
